Data set [1] has as its system soluble epoxide hydrolase (sEH). Kind of data set: Fluorescent assay for mouse and human soluble epoxide hydrolase (CMNPC substrate). Type of data set: biochemical. Particulars: recombinant sEH, CMNPC substrate 5 μM, 30° C. From the text:
Fluorescent Assay for Mouse and Human Soluble Epoxide Hydrolase
Recombinant mouse sEH (MsEH) and human sEH (HsEH) were produced in a baculovirus expression system as previously reported. Grant et al., J. Biol. Chem., 268:17628-17633 (1993); Beetham et al., Arch. Biochem. Biophys., 305:197-201 (1993). The expressed proteins were purified from cell lysate by affinity chromatography. Wixtrom et al., Anal. Biochem., 169:71-80 (1988). Protein concentration was quantified using the Pierce BCA assay using bovine serum albumin as the calibrating standard. The preparations were at least 97% pure as judged by SDS-PAGE and scanning densitometry. They contained no detectable esterase or glutathione transferase activity which can interfere with the assay. The assay was also evaluated with similar results in crude cell lysates or homogenate of tissues.
The IC50s for each inhibitor were according to the following procedure: Substrate: [drawing 66]
Cyano(2-methoxynaphthalen-6-yl)methyl (3-phenyloxiran-2-yl)methyl carbonate (CMNPC; Jones P. D. et. al.; Analytical Biochemistry 2005; 343: pp. 66-75)
Bis/Tris HCl 25 mM pH 7.0 containing 0.1 mg/mL of BSA (buffer A)
CMNPC at 0.25 mM in DMSO.
Mother solution of enzyme in buffer A (Mouse sEH at 6 μg/mL and Human sEH at 5 μg/mL).
Inhibitor dissolved in DMSO at the appropriate concentration.
In a black 96 well plate, fill all the wells with 150 μL of buffer A.
Add 2 μL of DMSO in well A2 and A3, and then add 2 μL of inhibitor solution in A1 and A4 through A 12.
Add 150 μL of buffer A in row A, then mix several time and transfer 150 μL to row B. Repeat this row operation up to row H. The 150 μL removed from row H go to the trash.
Add 20 μL of buffer A in column 1 and 2, then add 20 μL of enzyme solution to column 3 to 12.
Incubate the plate for 5 minutes in the plate reader at 30° C.
During incubation prepare the working solution of substrate by mixing 3.68 mL of buffer A (4×0.920 mL) with 266 μL (2×133 μL (2×133 μL) of substrate solution).
At t=0, add 30 μL of working substrate solution with multi-channel pipette labeled “Briggs 303” and start the reading ([S]final: 5 μM).
Read with ex: 330 nm (20 nm) and em: 465 nm (20 nm) every 30 second for 10 minutes. The velocities are used to analyze and calculate the IC50s.

Consider `O=C(Nc1ccc(-n2ccnc2)cc1)NC12CC3CC(CC(C3)C1)C2` [Compound 1, 1-Adamantan-1-yl-3-[4-(1H-imidazol-1-yl)-phenyl]-urea], for which the melting point is 272 to 276 °C.

`O=C(Nc1ccc(N2CCCC2=O)cc1)NC12CC3CC(CC(C3)C1)C2` [Compound 5, 1-Adamantan-1-yl-3-[4-(2-oxo-pyrrolidin-1-yl)-phenyl]-urea] showed a melting point of over 300 °C. Further, in data set [1] (compound concentration 50 nM), the “% I” value amounted to 82%.

`O=C(Nc1cccc(N2CCCC2=O)c1)NC12CC3CC(CC(C3)C1)C2` [Compound 10, 1-Adamantan-1-yl-3-[3-(2-oxo-pyrrolidin-1-yl)-phenyl]-urea] came in with a melting point of 239 to 242 °C. Further, the “% I” value in data set [1] (compound concentration 500 nM) is reported as 88%.

Compound `O=C(Nc1ccc(-n2ccnc2)cc1)Nc1ccc(C(F)(F)F)cc1` [Compound 11, 1-(4-(1H-imidazol-1-yl)-phenyl)-3-(4-trifluoromethyl-phenyl)-urea] came in with a melting point of 209 to 213 °C. The “% I” value in data set [1] (compound concentration 50 nM) is given as 92%.

The compound `Cc1nccn1-c1ccc(NC(=O)Nc2ccc(C(F)(F)F)cc2)cc1` [Compound 12, 1-[4-(2-methyl-1H-imidazol-1-yl)-phenyl]-3-(4-trifluoromethyl-phenyl)-urea] showed a melting point of 234 to 238 °C. Also, in data set [1] (compound concentration 50 nM), the “% I” value is given as 96%.

`O=C(Nc1ccc(-n2cnc(Cl)c2Cl)cc1)Nc1ccc(C(F)(F)F)cc1` [Compound 13, 1-[4-(4,5-dichloro-1H-imidazol-1-yl)-phenyl]-3-(4-trifluoromethyl-phenyl)-urea] displayed a melting point of 221 to 224 °C. Moreover, the “% I” value in data set [1] (compound concentration 50 nM) was found to be 95%.

Turning to `O=C(Nc1ccc(N2CCOCC2)cc1)Nc1ccc(C(F)(F)F)cc1` [Compound 14, 1-(4-Morpholin-4-yl-phenyl)-3-(4-trifluoromethyl-phenyl)-urea], the melting point is 228 to 232 °C. The “% I” value in data set [1] (compound concentration 50 nM) is 87%.

`O=C(Nc1ccc(N2CCCC2=O)cc1)Nc1ccc(C(F)(F)F)cc1` [Compound 15] had a melting point of 282 to 285 °C. Besides, the “% I” value in data set [1] (compound concentration 50 nM) is recorded as 74%.

`O=C(Nc1ccc(C(F)(F)F)cc1)Nc1cccc(N2CCOCC2)c1` [Compound 19, 1-(3-Morpholin-4-yl-phenyl)-3-(4-trifluoromethyl-phenyl)-urea] displayed a melting point of 240 to 244 °C. Also, the “% I” value in data set [1] (compound concentration 50 nM) worked out at 79%.

`O=C(Nc1ccc(C(F)(F)F)cc1)Nc1cccc(N2CCCC2=O)c1` [Compound 20, 1-[3-(2-Oxo-pyrrolidin-1-yl)-phenyl]-3-(4-trifluoromethyl-phenyl)-urea]: the melting point was in the range of 220 to 224 °C. For the same compound, the “% I” value in data set [1] (compound concentration 50 nM) stood at 84%.

Broadly, the melting point is the temperature of the solid-liquid transition.

These data come from US20080076770A1, “SOLUBLE EPOXIDE HYDROLASE INHIBITORS” (Arete Therapeutics, Inc., priority 2006, published 2008).
